According to patent publication US8324267B2, “Kinase inhibitors and the use thereof” (Forschungzentrum Karlsruhe GmbH, priority 2001, dated 2012):
Entries after “also recorded” stand apart in the source; their conditions may differ.

Legend:
[1] = tested on: Human endothelial cells (HDMEC); test: Apoptosis, Cell Death Detection ELISA (nucleosome ELISA); type: cell-based; settings: 24 h, FIG. 5
Experimental: (§1) Human endothelial cells (HDMEC) and rat pancreatic tumor cells (1AS) were resuspended (10^5 cells/ml). 50 μl of cell suspension were seeded in 96-well cell culture plates and incubated at 37° C. for 24 h. The cells were then incubated with the stated concentrations of the various inhibitors for a further 24 h. The pro-apoptotic effect of the compounds was determined using the Cell Death Detection ELISA^plus kit (Roche Diagnostics GmbH, Mannheim) in accordance with the manufacturer's statements. The kit contains a photometric enzyme immunoassay for qualitative and quantitative in vitro determination of cytoplasmic histone-associated DNA fragments (mono- and oligo-nucleosomes) released through active cell death (apoptosis). […] The measurements relative to the untreated cells are plotted against the inhibitor concentration.
(§2) FIG. 5: Nucleosome ELISA test (Cell Death Detection ELISA). The extent of dead cells of the respective cell line is depicted (as relative absorption at 405 nm) in relation to the use of the inhibitors MAE87, MAE106 and MAZ51 and MAZ51-2.

[2] = tested on: rat pancreatic tumor cells (1AS); test: as above; type: cell-based; settings: 1AS cells, 24 h; FIG. 5
Experimental: as §1, §2

[3] = tested on: rat tumor cell lines (ASML, 1AS, G, AT6.1, MTLN3, MTLY, NM081 and MT450); test: Tumor cell proliferation, 3H-thymidine incorporation; type: cell-based; settings: 2.5 μM or 10 μM, 24 h, FIG. 4
Experimental: Cells of the rat tumor cell line (Nestl et al., 2001, Cancer Research 61: 1569-1577) were cultivated in the presence of 1% DMSO (solvent control), 2.5 μM or 10 μM of the indolinone for 24 h. Tritiated thymidine was added to the medium during the last 4-6 h of incubation. The cells were harvested and the amount of radioactivity incorporated into the DNA was quantified.
The data are stated in percent relative to the proliferation of the cells treated only with DMSO (% relative to control; see FIG. 4)).
FIG. 4: Measurement of the (^3H)-thymidine incorporation (in %) into rat tumor cell lines (ASML, 1AS, G, AT6.1, MTLN3, MTLY, NM081 and MT450) as a function of the concentration of inhibitors employed. The inhibition of cell proliferation by MAE87, MAE106 and MAZ51 is dose-dependent.

rat carcinoma cell lines = test: Apoptosis in rat tumor cell lines, nucleosome ELISA; type: cell-based; settings: 2.5 μM or 10 μM, 24 h, FIG. 6
Experimental: Cells of the rat tumor cell line (Nestl et al., 2001, Cancer Research 61: 1569-1577) were cultivated in the presence of 1% DMSO (solvent control), 2.5 μM or 10 μM of the indolinone for 24 h. Apoptosis was quantified with the aid of anti-DNA peroxidase antibody. The amount of dye produced in the chromogenic reaction catalyzed by the peroxidase was measured by photometry at 405 nm and correlated with the amount of apoptosis-associated cytoplasmic mono- and oligonucleosomes. The data are stated in % apoptosis relative to the cells of the solvent control (% relative to control) (FIG. 6).
FIG. 6: Nucleosome ELISA test (Cell Death Detection ELISA). The extent of dead cells of the respective rat tumor cell line is depicted (apoptosis in %) in relation to the use of the inhibitors MAE87, MAE106 and MAZ51.

[4] = tested on: chorioallantoic membrane (CAM); test: Chorioallantoic membrane (CAM) angiogenesis assay; type: in vivo; settings: chick embryos, 100 μg of inhibitor on methylcellulose disk, day 5 to day 7; FIG. 3
Experimental: The chorioallantoic membrane (CAM) assay was carried out as described (Wernert et al.) with chick embryos 5 days after fertilization. Methylcellulose disks (diameter 2 mm) with 100 μg of inhibitor were applied to the CAMs. Evaluation took place on day 7. A. negative control B. MAE 106-treated egg.
FIG. 3: Inhibition of angiogenesis in a chorioallantoic membrane (CAM). A: sham-treated cells (control). B: Mae106-treated cells of the CAM.

Compound	induction of apoptosis (relative absorption at 405 nm) [1]	induction of apoptosis (relative absorption at 405 nm) [2]	inhibition of tumor cell proliferation (3H-thymidine incorporation, % relative to control) [3]	induction of apoptosis (% relative to solvent control) (rat carcinoma cell lines)	inhibition of angiogenesis (network of blood vessels) in the CAM [4]
O=C1Nc2ccccc2C1=Cc1ccc(O)cc1O [MAE87, 3-(2,4-Dihydroxybenzylidene)-1,3-dihydroindol-2-one]	Induced Apoptosis	Induced Apoptosis	dose-dependent	induce cell death	Inhibit Angiogenesis
COc1ccc(C=C2C(=O)Nc3ccccc32)cc1F [MAE106, 3-(3-Fluoro-4-methoxybenzylidene)-1,3-dihydroindole-2-one]	Induced Apoptosis	Induced Apoptosis	dose-dependent	induce cell death	highly underdeveloped
CN(C)c1ccc(C=C2C(=O)Nc3ccccc32)c2ccccc12 [MAZ51, 3-(4-Dimethylaminonaphthalen-1-ylmethylene)-1,3-dihydroindol-2-one]	potent activator of apoptosis	potent activator of apoptosis	greatest inhibitory effect; also recorded: dose-dependent	most potent apoptosis inducer; also recorded: induce cell death	Inhibit Angiogenesis
